Test results reported in BindingDB's records for doi:10.1021/jm00077a017 (University of Rhode Island, 1994).

How the values were obtained:
[1] = target: Adenosine deaminase 2 (CECR1) (Homo sapiens) (UniProt Q9NZK5); test: Tested for inhibition against human plasma adenosine deaminase (ADA2)
[2] = target: Adenosine deaminase 2 (CECR1) (Homo sapiens) (UniProt Q9NZK5); test: Tested for binding constant against adenosine deaminase (ADA2) in human plasma

Sequence of Adenosine deaminase 2 (CECR1) (Homo sapiens) (Q9NZK5 whole entry, looked up): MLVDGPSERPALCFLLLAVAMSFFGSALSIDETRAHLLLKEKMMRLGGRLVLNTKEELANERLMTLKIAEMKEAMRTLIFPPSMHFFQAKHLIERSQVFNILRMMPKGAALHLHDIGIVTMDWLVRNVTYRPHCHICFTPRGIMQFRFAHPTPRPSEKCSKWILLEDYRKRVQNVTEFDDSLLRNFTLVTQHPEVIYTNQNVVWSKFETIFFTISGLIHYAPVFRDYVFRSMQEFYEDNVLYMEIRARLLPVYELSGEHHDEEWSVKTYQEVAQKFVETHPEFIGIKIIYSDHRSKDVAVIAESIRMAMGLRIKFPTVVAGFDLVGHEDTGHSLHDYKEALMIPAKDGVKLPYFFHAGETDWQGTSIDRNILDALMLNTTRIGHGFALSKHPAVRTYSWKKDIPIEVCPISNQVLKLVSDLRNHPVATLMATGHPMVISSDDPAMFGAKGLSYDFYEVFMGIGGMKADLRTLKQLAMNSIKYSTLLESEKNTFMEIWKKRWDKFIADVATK

Ki [1] [µM] | Ki [2] [µM] | SMILES
1410 |  | Nc1nncc2c1nnn2C1O[C@H](CO)[C@@H](O)[C@H]1O (some centres not stated)
 | 2180 | Nc1ncnc2c1ncn2[C@@H]1O[C@H](CO)[C@@H](O)[C@H]1O [[U-14C]adenosine]
